Tests used:
[1] = cn = amount concentration of the nth substance listed, in mol/dm3; conditions: 101 kPa, Liquid; for speed of sound: Sing-around technique in a fixed-path interferometer; for mass density: Vibrating tube method
[2] = mn = molality of the nth substance listed, in mol/kg; conditions: 101 kPa, Liquid; for speed of sound: Sing-around technique in a fixed-path interferometer; for mass density: Vibrating tube method

[Cl-].[Na+] [sodium chloride] + O
[1]
Conditions	mass density [kg/m3]	speed of sound [m/s]
298.15 K, c1 = 0.0251	998.068	–
298.15 K, c1 = 0.0586	999.427	1501.1
298.15 K, c1 = 0.1021	1001.16	1503.8
298.15 K, c1 = 0.1483	1002.99	1506.4
298.15 K, c1 = 0.2047	1005.19	1509.4
298.15 K, c1 = 0.2543	1007.12	1511.8
303.15 K, c1 = 0.0251	996.654	1511.3
303.15 K, c1 = 0.0586	997.998	1513.4
303.15 K, c1 = 0.1021	999.715	1516
303.15 K, c1 = 0.1483	1001.52	1518.5
303.15 K, c1 = 0.2047	1003.7	1521.4
303.15 K, c1 = 0.2543	1005.61	1523.6
308.15 K, c1 = 0.0251	995.026	1521.9
308.15 K, c1 = 0.0586	996.357	1524
308.15 K, c1 = 0.1021	998.056	1526.5
308.15 K, c1 = 0.1483	999.851	1528.9
308.15 K, c1 = 0.2047	1002.01	1531.6
308.15 K, c1 = 0.2543	1003.9	1533.7
313.15 K, c1 = 0.0251	993.201	1531
313.15 K, c1 = 0.0586	994.523	–
313.15 K, c1 = 0.1021	996.208	1535.5
313.15 K, c1 = 0.1483	997.991	1537.8
313.15 K, c1 = 0.2047	1000.14	1540.3
313.15 K, c1 = 0.2543	1002.01	1542.3
318.15 K, c1 = 0.0251	991.192	1538.5
318.15 K, c1 = 0.0586	992.506	1540.5
318.15 K, c1 = 0.1021	994.181	1542.8
318.15 K, c1 = 0.1483	995.954	1545.1
318.15 K, c1 = 0.2047	998.089	1547.6
318.15 K, c1 = 0.2543	999.952	–
323.15 K, c1 = 0.0251	989.012	1544.6
323.15 K, c1 = 0.0586	990.317	1546.5
323.15 K, c1 = 0.1021	991.983	–
323.15 K, c1 = 0.1483	993.747	1551
323.15 K, c1 = 0.2047	995.872	1553.4
323.15 K, c1 = 0.2543	997.725	1555.2

Cc1onc(-c2c(F)cccc2Cl)c1C(=O)N[C@@H]1C(=O)N2[C@@H]1SC(C)(C)[C@@H]2C(=O)[O-].[Na+] + O
[2]
Conditions	mass density [kg/m3]	speed of sound [m/s]
298.15 K, m1 = 0.03508	1003.21	1503
298.15 K, m1 = 0.05711	1007	1506.4
298.15 K, m1 = 0.07305	1009.68	1508.6
298.15 K, m1 = 0.09335	1013.04	1511.2
298.15 K, m1 = 0.1142	1016.42	1513.7
298.15 K, m1 = 0.1343	1019.68	1515.8
298.15 K, m1 = 0.148	1021.89	1517.2
298.15 K, m1 = 0.1675	1025.02	1518.9
298.15 K, m1 = 0.1812	1027.16	1520.1
303.15 K, m1 = 0.03508	1001.74	1514.8
303.15 K, m1 = 0.05711	1005.49	1517.8
303.15 K, m1 = 0.07305	1008.14	1519.9
303.15 K, m1 = 0.09335	1011.46	1522.2
303.15 K, m1 = 0.1142	1014.8	1524.4
303.15 K, m1 = 0.1343	1018.04	1526.4
303.15 K, m1 = 0.148	1020.23	1527.6
303.15 K, m1 = 0.1675	1023.33	1529.2
303.15 K, m1 = 0.1812	1025.46	1530.2
308.15 K, m1 = 0.03508	1000.05	1524.9
308.15 K, m1 = 0.05711	1003.77	1527.6
308.15 K, m1 = 0.07305	1006.39	1529.5
308.15 K, m1 = 0.09335	1009.67	1531.6
308.15 K, m1 = 0.1142	1012.98	1533.5
308.15 K, m1 = 0.1343	1016.18	1535.3
308.15 K, m1 = 0.148	1018.35	1536.4
308.15 K, m1 = 0.1675	1021.43	1537.8
308.15 K, m1 = 0.1812	1023.54	1538.7
313.15 K, m1 = 0.03508	998.174	1533.5
313.15 K, m1 = 0.05711	1001.85	1535.9
313.15 K, m1 = 0.07305	1004.44	1537.5
313.15 K, m1 = 0.09335	1007.69	1539.4
313.15 K, m1 = 0.1142	1010.97	1541.1
313.15 K, m1 = 0.1343	1014.14	1542.7
313.15 K, m1 = 0.148	1016.29	1543.7
313.15 K, m1 = 0.1675	1019.34	1544.9
313.15 K, m1 = 0.1812	1021.43	1545.7
318.15 K, m1 = 0.03508	996.11	1540.5
318.15 K, m1 = 0.05711	999.746	1542.6
318.15 K, m1 = 0.07305	1002.31	1544.1
318.15 K, m1 = 0.09335	1005.53	1545.7
318.15 K, m1 = 0.1142	1008.77	1547.3
318.15 K, m1 = 0.1343	1011.91	1548.7
318.15 K, m1 = 0.148	1014.05	1549.5
318.15 K, m1 = 0.1675	1017.07	1550.6
318.15 K, m1 = 0.1812	1019.15	1551.4
323.15 K, m1 = 0.03508	993.877	1546.1
323.15 K, m1 = 0.05711	997.477	1548
323.15 K, m1 = 0.07305	1000.02	1549.2
323.15 K, m1 = 0.09335	1003.2	1550.7
323.15 K, m1 = 0.1142	1006.42	1552.1
323.15 K, m1 = 0.1343	1009.52	1553.3
323.15 K, m1 = 0.148	1011.64	1554
323.15 K, m1 = 0.1675	1014.64	1555
323.15 K, m1 = 0.1812	1016.7	1555.7

— the NIST ThermoML archive (doi:10.1021/acs.jced.5b00317)
